Results reported in patent US20250388571A1, “AMP-ACTIVATED PROTEIN KINASE MODULATOR COMPOUNDS AND USES THEREOF” (Biolexis Therapeutics, Inc., priority 2024, published 2025).
Read-outs that look alike come from different tables or passages of the source.

Tests used:
[1] = test system: AMPK signaling in human liver cells; assay: Western blot assay, human liver cells (Biological Example 1); type: cell-based
Description: After treatment, cells were analyzed using a glucose uptake assay and a western blot assay for human skeletal myoblasts, human cardiomyocytes cells, human hepatocytes-THLE-2 cells, preadipocyte HWP-c cells.
Samples for immunoblotting studies were prepared for electrophoresis by adding in a final concentration of 1× Laemmli loading buffer (supplemented with 5% 2-mercaptoethanol). Samples were then electrophorized by SDS-PAGE (4-15% or 4-20% Criterion TGX Precast gel, Bio-Rad) at a constant voltage within the range of 140V. Proteins were transferred to a nitrocellulose membrane (Bio-Rad) using the Trans-Blot Turbo transfer system (Bio-Rad). Membranes were blocked with 5% BSA in TBST for a minimum of 1 hour at room temperature before incubating with the following primary antibodies: • Phospho-AMPKα (Thr172) (40H9) Rabbit mAb (CST, cat no: 2535S), • AMPKα Antibody (CST, cat no: 2532S) • Phospho-Raptor (Ser792) Antibody (CST, cat no: 2083S) • Raptor (24C12) Rabbit mAb (CST, cat no: 2280S) • Phospho-Acetyl-CoA Carboxylase (Ser79) Antibody (CST, cat no: 3661S) • Acetyl-CoA Carboxylase Antibody (CST, cat no: 3662S) • AMPKα2 Antibody (CST, cat no: 2757S) • AMPKβ1 antibody (CST, cat no: 12063) • AMPKβ2 Antibody (CST, CST, cat no: 4148S) • AMPKγ3 Antibody (CST, cat no: 2550S).

[2] = PK oral bioavailability experiment, mouse; type: in vivo, male Swiss Albino Mouse; settings: 1 mg/kg intravenous, 5 mg/kg oral
Description: A total of 24 male Swiss albino mouse were allotted for the study, Animals were allotted to 2 groups containing 12 mice/group, on day of dosing all the animals were fasted 3 hours before dosing. The test formulation was administered as a single dose by intravenous and oral route via tail vein and oral gavage needle at a dose of 1 and 5 mg/kg with a dose volume of 5 and 10 mL/kg, respectively.
Approximately 0.1 mL of blood sample from each animal was collected via retro orbital at predetermined time points (3 animals/Timepoint) in pre-labeled Eppendorf tubes containing anticoagulant. After blood collection at 0.5 h and 1 h, after collection of CSF, whole blood was withdrawn, and brain tissue was collected as a terminal sampling. Blood samples were centrifuged at 10000 rpm for 5 min under refrigeration (2-4° C.) within 0.5 h to obtain plasma. The separated plasma samples were collected in pre labeled tubes within 60 min of separation and stored at −20° C. up to 24 h. Post 24 h sample collection, all plasma samples were transferred to deep freezer custodian to store below or at −70° C. until shipment.
Similarly, CSF and Brain were collected at 0.5 h and 1h time point by scarification. Tissues were blotted and dried and then transferred to 15 mL falcon tubes. Initially all tissue samples were stored at −20±3° C. Later all brain tissue samples were homogenized with PBS at 1:4 ratio and the brain homogenate were transferred to deep freezer (−70±10° C.) and stored.
The PK parameters were evaluated using Phoenix WinNonlin® Ent-Version 8.3 by non-compartmental analysis.

db/db mice = settings: for Plasma Cholesterol / Plasma HDL / Plasma LDL / Plasma Triglyceride: end of the study; for Absolute Liver Weight / Absolute Liver Weight (g) [table follows b2014 on epididymal adipose tissue weight] / Relative Epididymal Tissue Weight / Relative Liver Weight: necropsy; for Fasting Plasma Glucose (mg/dL), OGTT: OGTT day 21, before glucose load 1 gram/kg
Description: The doses of the test item to be administered were calculated daily in mg/kg based on the latest bodyweight of the animal. The dose volume was calculated based on mg/kg of body weight and adjusted with each bodyweight collection. Dose and route of the test compounds administration are selected as per the supporting literature.
Male db/db mice were procured from The Jackson Laboratory. All the animals were allowed to quarantine for 7 days and acclimatize for one day prior to experiment initiation. During this period, mice were observed daily once for clinical signs. On Day 1, Animals were randomized based on body weight and blood glucose levels (Accu-Chek) into three groups. […] During the study period the body weight of mice was recorded weekly thrice, and clinical scoring was done on daily basis. The OGTT was performed on day 21. On day 36 blood was collected and centrifuged at 4° C., 10,000 RPM for 10 minutes for plasma collection. The plasma stored at −80° C. for estimation of plasma HDL and LDL. All the animals were humanely sacrificed by CO2. At the time of necropsy liver, adipose tissue and pancreas weight were taken. The liver and pancreas were stored at −80° C.
A mixture of DMSO (2%), Cremophor EL (2%), Tween 80 (1%), 0.5% methyl cellulose (35%), and water (60%) was used for the formulation. Doses were prepared at concentrations of 30 and 50 mg/kg. Administration was oral, daily for 36 days. Male mice (Mus musculus; db/db C57BL/6) aged 8-9 weeks and weighing less than or equal to 40 grams were used for the study. Groups were assigned 10 mice per group.
During the study period body weight of mice were recorded weekly thrice and clinical scoring were done on daily basis. The OGTT was performed on day 21. On day 36 blood was collected and centrifuged at 4° C., 10000 RPM for 10 minutes for plasma collection. The plasma stored at −80° C. for estimation of plasma HDL and LDL. All the animals were humanely sacrificed by CO2. At the time of necropsy liver, adipose tissue and pancreas weight were taken. Liver and pancreas were stored at −80° C.
Cage-side observations were made to detect any changes and general activity of the animals.
Body weight of each mouse was recorded at the time of randomization and thrice a week during study period. OGTT were done at day 21. On day 20 mice were fasted over night and on day 21 mice were treated with respective treatment-60 minute prior to glucose load 1 gram/kg. Plasma glucose was measured at 0 min (before glucose load), 15 min, 30 min, 60 min, 90 min and 120 min.
Glucose estimation in urine was done at terminal point on day 32. The urine of individual mice was collected by placing the mice in metabolic cages. Urine glucose levels were measured by calorimetric method in collected urine.
Plasma lipid profile: Triglyceride, HDL and LDL were performed at the end of the study by appropriate kit or using Fully Auto Biochemistry Analyzer Selectra PRO M Lite. Fat pad weight was recorded at terminal point. Fructosamine were measured by ELISA kit (Biomol, G-MOEB2562.96).
All data is expressed as mean±SEM unless otherwise noted. Statistical analysis was done with GraphPad Prism-5 using one-way ANOVA followed by Dunnett's test/Tukey's post hoc test. Data were considered statistically significant if P value is less than 0.05.

[3] = test system: AMPK signal pathway in human cardiac myocytes (HCM); assay: Western blot assay, human cardiomyocytes; type: cell-based

O=c1[nH]c(-c2c[nH]c3cc(F)c(-c4ccc(C5(O)CCC5)cc4)c(F)c23)no1 [Compound I-11, 3-(4,6-difluoro-5-(4-(1-hydroxycyclobutyl)phenyl)-1H-indol-3-yl)-1,2,4-oxadiazol-5(4H)-one]
AMPK signaling activation [1]: dose-dependent manner | clearance [2]: low clearance | elimination [2]: biphasic elimination | systemic exposure [2]: moderate systemic exposure | Fasting Fructosamine (db/db mice; 30 mg/kg p.o. QD): 1164.8 ± 105.5 ng/mL | Fasting Plasma HbA1c (db/db mice; 30 mg/kg p.o. QD): 60.13 ± 7.73 ng/mL | Fasting Plasma Insulin (db/db mice; 30 mg/kg p.o. QD): 4.6 ± 0.5 ng/mL | Fasting Blood Glucose (~12 hrs) (db/db mice; 30 mg/kg p.o. QD, Day 36): 335.70 ± 16.88 mg/dL | Urine Glucose (db/db mice; 30 mg/kg p.o. QD, day 32): 1694.43 ± 10.56 mg/dL | Plasma Cholesterol (db/db mice; 30 mg/kg p.o. QD): 118.13 ± 8.39 mg/dL | Plasma HDL (db/db mice; 30 mg/kg p.o. QD): 145.41 ± 11.48 mg/dL | Plasma LDL (db/db mice; 30 mg/kg p.o. QD): 23.58 ± 2.93 mg/dL | Plasma Triglyceride (db/db mice; 30 mg/kg p.o. QD): 156.87 ± 17.41 mg/dL | Absolute Liver Weight (db/db mice; 30 mg/kg p.o. QD): 2.34 ± 0.07 g | Absolute Liver Weight (g) [table follows b2014 on epididymal adipose tissue weight] (db/db mice; 30 mg/kg p.o. QD): 2.42 ± 0.10 g | Relative Epididymal Tissue Weight (db/db mice; 30 mg/kg p.o. QD): 0.057 ± 0.002 g | Relative Liver Weight (db/db mice; 30 mg/kg p.o. QD): 0.055 ± 0.001 g | 15 min Plasma Glucose (mg/dL), OGTT (db/db mice; 30 mg/kg, OGTT day 21): 676.20 ± 19.94 mg/dL | 30 min Plasma Glucose (mg/dL), OGTT (db/db mice; 30 mg/kg, OGTT day 21): 619.54 ± 26.68 mg/dL | 60 min Plasma Glucose (mg/dL), OGTT (db/db mice; 30 mg/kg, OGTT day 21): 520.87 ± 46.63 mg/dL | 120 min Plasma Glucose (mg/dL), OGTT (db/db mice; 30 mg/kg, OGTT day 21): 397.78 ± 9.65 mg/dL | glucose area under the curve (AUC), OGTT (db/db mice; 30 mg/kg, OGTT day 21): 61613.10 ± 2572.98 mg·min/dL | Fasting Plasma Glucose (mg/dL), OGTT (db/db mice; 30 mg/kg): 287.70 ± 34.54 mg/dL | decrease in the plasma glucose compared to vehicle control (OGTT) (db/db mice; 30 mg/kg, statistically not significant): 7.5% | Fasting Fructosamine (db/db mice; 50 mg/kg p.o. QD): 954.2 ± 45.6 ng/mL | Fasting Plasma HbA1c (db/db mice; 50 mg/kg p.o. QD): 39.82 ± 4.31 ng/mL | Fasting Plasma Insulin (db/db mice; 50 mg/kg p.o. QD): 5.2 ± 0.8 ng/mL | Plasma Cholesterol (db/db mice; 50 mg/kg p.o. QD): 97.30 ± 8.76 mg/dL | Plasma HDL (db/db mice; 50 mg/kg p.o. QD): 110.76 ± 9.17 mg/dL | Plasma LDL (db/db mice; 50 mg/kg p.o. QD): 14.78 ± 1.62 mg/dL | Plasma Triglyceride (db/db mice; 50 mg/kg p.o. QD): 97.55 ± 11.60 mg/dL | Absolute Liver Weight (db/db mice; 50 mg/kg p.o. QD): 2.34 ± 0.06 g | Absolute Liver Weight (g) [table follows b2014 on epididymal adipose tissue weight] (db/db mice; 50 mg/kg p.o. QD): 2.58 ± 0.07 g | Relative Epididymal Tissue Weight (db/db mice; 50 mg/kg p.o. QD): 0.061 ± 0.001 g | Relative Liver Weight (db/db mice; 50 mg/kg p.o. QD): 0.056 ± 0.001 g | 15 min Plasma Glucose (mg/dL), OGTT (db/db mice; 50 mg/kg, OGTT day 21): 670.72 ± 23.88 mg/dL | 30 min Plasma Glucose (mg/dL), OGTT (db/db mice; 50 mg/kg, OGTT day 21): 560.85 ± 37.42 mg/dL | 60 min Plasma Glucose (mg/dL), OGTT (db/db mice; 50 mg/kg, OGTT day 21): 485.98 ± 32.31 mg/dL | 120 min Plasma Glucose (mg/dL), OGTT (db/db mice; 50 mg/kg, OGTT day 21): 378.40 ± 18.24 mg/dL | glucose area under the curve (AUC), OGTT (db/db mice; 50 mg/kg, OGTT day 21): 57436.00 ± 2283.79 mg·min/dL | Fasting Plasma Glucose (mg/dL), OGTT (db/db mice; 50 mg/kg): 204.64 ± 29.60 mg/dL | decrease in the plasma glucose compared to vehicle control (OGTT) (db/db mice; 50 mg/kg, significant): 14% | fasting blood glucose levels compared with vehicle control, dose dependence (db/db mice; 30 & 50 mg/kg p.o. QD, day 21, 28, and 36): dose-dependent decrease | clinical signs, morbidity, mortality (db/db mice; 30 and 50 mg/kg oral, daily for 36 days): no observations of clinical signs or morbidity, and no mortality | glucose as measured by area under the curve (AUC), dose dependence (db/db mice; 30 and 50 mg/kg, OGTT day 21): dose dependent decreases | p-ACC/p-AMPK and AMPKα2β2γ3 expression [3]: did not activate
